{"source": "ChEMBL document CHEMBL1128096", "about": "“Gamma-lactams and related compounds as cholesterol absorption inhibitors: homologs of the beta-lactam cholesterol absorption inhibitor SCH 484611” (1995)", "key": {"[1]": {"test_system": "Cricetinae gen. sp.", "assay": "Ability to reduce liver cholesterol ester (L/CE) levels in the cholesterol fed hamster model at a dose of 50 mg/k", "assay_type": "functional, Cricetulus griseus"}, "[2]": {"test_system": "Cricetinae gen. sp.", "assay": "Tested for ability to reduce liver cholesterol ester (L/CE) levels in the cholesterol fed hamster model at a dose of 50 mg/kg; NE: No effect", "assay_type": "functional, organism-based", "parameters": "dose 50 mg/kg", "details": "Cricetulus griseus"}, "[3]": {"test_system": "Cricetinae gen. sp.", "assay": "Tested for ability to reduce liver cholesterol ester (L/CE) levels in the cholesterol fed hamster model at a dose of 10 mg/kg", "assay_type": "functional, Cricetulus griseus"}}, "note": "Calls of active or inactive are those of the source. The calls are words filed in the database; no cut-off is given here."}
{"smiles": "COc1ccc([C@@H]2[C@H](CCCCc3ccccc3)CC(=O)N2c2ccc(OC)cc2)cc1", "values": [{"measurement": "L/CE", "setting": "[1]", "result": 30, "unit": "%"}]}
{"smiles": "COc1ccc([C@@H]2C[C@@H](CCCc3ccccc3)C(=O)N2c2ccc(OC)cc2)cc1", "values": [{"measurement": "L/CE", "setting": "[2]", "result": "inactive"}]}
{"smiles": "COc1ccc([C@H]2CN(c3ccc(OC)cc3)C(=O)[C@@H]2CCCc2ccccc2)cc1", "values": [{"measurement": "L/CE", "setting": "[2]", "result": "inactive"}]}
{"smiles": "COc1ccc([C@@H]2[C@@H](CCc3ccccc3)OC(=O)N2c2ccccc2)cc1", "values": [{"measurement": "L/CE", "setting": "[1]", "result": 34, "unit": "%"}]}
{"smiles": "COc1ccc([C@@H]2[C@@H](c3ccc4ccccc4c3)CC(=O)N2c2ccc(OC)cc2)cc1", "values": [{"measurement": "L/CE", "setting": "[1]", "result": 28, "unit": "%"}]}
{"smiles": "COc1ccc([C@@H]2[C@H](CCCc3ccccc3)S(=O)(=O)N2c2ccccc2)cc1", "values": [{"measurement": "L/CE", "setting": "[1]", "result": 43, "unit": "%"}]}
{"smiles": "COc1ccc([C@@H]2[C@@H](CCCc3ccccc3)C(=S)N2c2ccc(OC)cc2)cc1", "values": [{"measurement": "L/CE", "setting": "[1]", "result": 23, "unit": "%"}]}
{"smiles": "COc1ccc([C@@H]2[C@@H](CCCc3ccccc3)C(=O)N2c2ccc(OC)cc2)cc1", "note": "[SCH-48461]", "values": [{"measurement": "L/CE", "setting": "[1]", "result": 78, "unit": "%"}, {"measurement": "L/CE", "setting": "[3]", "result": 93, "unit": "%"}]}
{"smiles": "COc1ccc([C@@H]2[C@H](CCCc3ccccc3)CC(=O)N2c2ccc(OC)cc2)cc1", "values": [{"measurement": "L/CE", "setting": "[1]", "result": 43, "unit": "%"}]}
{"smiles": "COc1ccc([C@@H]2[C@H](CCCc3ccccc3)C(=O)N2c2ccc(OC)cc2)cc1", "values": [{"measurement": "L/CE", "setting": "[3]", "result": 69, "unit": "%"}]}
{"smiles": "COc1ccc([C@@H]2[C@@H](CCCc3ccccc3)S(=O)(=O)N2c2ccccc2)cc1", "values": [{"measurement": "L/CE", "setting": "[1]", "result": 51, "unit": "%"}]}
{"smiles": "COc1ccc([C@@H]2[C@@H](CCCCc3ccccc3)CC(=O)N2c2ccc(OC)cc2)cc1", "values": [{"measurement": "L/CE", "setting": "[1]", "result": 52, "unit": "%"}]}
{"smiles": "COc1ccc([C@@H]2[C@@H](CCc3ccccc3)NC(=O)N2c2ccccc2)cc1", "values": [{"measurement": "L/CE", "setting": "[1]", "result": 34, "unit": "%"}]}
{"smiles": "COc1ccc([C@H]2C[C@@H](CCCCc3ccccc3)C(=O)N2c2ccccc2)cc1", "values": [{"measurement": "L/CE", "setting": "[2]", "result": "inactive"}]}
{"smiles": "COc1ccc([C@@H]2[C@@H](CCc3ccccc3)CC(=O)N2c2ccc(OC)cc2)cc1", "values": [{"measurement": "L/CE", "setting": "[1]", "result": 24, "unit": "%"}]}
{"smiles": "COc1ccc([C@@H]2[C@H](CCc3ccccc3)CC(=O)N2c2ccc(OC)cc2)cc1", "values": [{"measurement": "L/CE", "setting": "[1]", "result": 16, "unit": "%"}]}
{"smiles": "COc1ccc([C@@H]2[C@@H](CCCc3ccccc3)OC(=O)N2c2ccccc2)cc1", "values": [{"measurement": "L/CE", "setting": "[1]", "result": 47, "unit": "%"}]}
{"smiles": "COc1ccc([C@@H]2[C@H](CCCc3ccccc3)C(=O)N2c2ccc(OC)cc2)cc1", "note": "(racemic)", "values": [{"measurement": "L/CE", "setting": "[1]", "result": 95, "unit": "%"}]}
{"smiles": "COc1ccc([C@@H]2[C@@H](CCCc3ccccc3)CC(=O)N2c2ccc(OC)cc2)cc1", "values": [{"measurement": "L/CE", "setting": "[1]", "result": 12, "unit": "%"}]}
{"smiles": "COc1ccc([C@@H]2C[C@@H](CCCCc3ccccc3)C(=O)N2c2ccccc2)cc1", "values": [{"measurement": "L/CE", "setting": "[2]", "result": "inactive"}]}
{"smiles": "COc1ccc([C@@H]2[C@H](CCc3ccccc3)OC(=O)N2c2ccccc2)cc1", "values": [{"measurement": "L/CE", "setting": "[1]", "result": 21, "unit": "%"}]}
{"smiles": "COc1ccc([C@@H]2[C@H](c3ccc4ccccc4c3)CC(=O)N2c2ccc(OC)cc2)cc1", "values": [{"measurement": "L/CE", "setting": "[1]", "result": 21, "unit": "%"}]}
